Experiments:
HCT116 cells = assay: Antiproliferative activity: inhibition of cellular proliferation of HCT116 cells (14C-thymidine incorporation); assay type: cell-based; details: Homo sapiens, HCT-116, 96 hours
Description: The antiproliferative activity of the products of the examples of Table 1 was determined by measuring the inhibition of the cellular proliferation of HCT116 cells.
The cells are inoculated into a cell culture medium at a concentration of 10 000 cells per well, in 0.17 mL of medium, and 20 μL of product to be tested, at various concentrations, and 10 μL of thymidine [methyl-14C] (100 μCi/ml—specific activity 47.90 mCi/mmol; NEN Technologies reference NEC568 batch 3550-001) are added, and then the cells are incubated at 37° C. and 5% CO2.
Medium used for the culture of HCT116 cells:DMEM medium 2 mM L-glutamine, 200 IU/ml penicillin, 200 μg/ml streptomycin and 10% (V/V) foetal calf serum (Life Technologies).
After 96 hours, the incorporation of ^14C-thymidine is counted in a Microbeta Wallac Trilux 1450 liquid scintillation counter. The results R are expressed in cpm (counts per minute) and converted to percentage growth inhibition GI % by first subtracting the mean of the number of cpm of the wells without B cells and by then dividing by the number of cpm of the wells of the untreated cells C comprising 20 μL of medium for dilution of the product containing 1% ethanol. (GI %=(R−B)×100/C %).
The IC50 values are calculated with the aid of the equation 205 of the XLFit software (IDBS company, UK) by non-linear regression analysis using the Marquardt algorithm (Donald W. MARQUARDT, J. Soc. industry. appl, vol 11, No. 2, June, 1963).

in vitro = details: human, Caco-2

| SMILES | IC50 (HCT116 cells) [nM] | Papp (in vitro) [×10⁻⁶ cm/s] |
| --- | --- | --- |
| CO[C@@H](C(=O)N[C@H]1COc2ccccc2NC1=O)[C@H](O)[C@@H](O)[C@H](O)/C=C/C(C)(C)C [Example 1, N-((S)-8-oxo-6,7,8,9-tetrahydro-5-oxa-9-azabenzocyclohepten-7-yl)-(E)-(2R,3R,4S,5R)-3,4,5-trihydroxy-2-methoxy-8,8-dimethylnon-6-enamide] | 60 | – |
| CO[C@@H](C(=O)N[C@H]1CNc2ccccc2NC1=O)[C@H](O)[C@@H](O)[C@H](O)/C=C/C(C)(C)C [Example 3, N-((S)-2-oxo-2,3,4,5-tetrahydro-1H-1,5-benzodiazepin-3-yl)-(E)-(2R,3R,4S,5R)-3,4,5-trihydroxy-2-methoxy-8,8-dimethylnon-6-enamide] | 88 | – |
| CO[C@@H](C(=O)N[C@H]1COc2ccccc2N(C)C1=O)[C@H](O)[C@@H](O)[C@H](O)/C=C/C(C)(C)C [Example 2, N-((S)-9-methyl-8-oxo-6,7,8,9-tetrahydro-5-oxa-9-azabenzocyclohepten-7-yl)-(E)-(2R,3R,4S,5R)-3,4,5-trihydroxy-2-methoxy-8,8-dimethylnon-6-enamide] | 32 | 5.2 |
| CO[C@@H](C(=O)N[C@H]1CNc2ccccc2N(C)C1=O)[C@H](O)[C@@H](O)[C@H](O)/C=C/C(C)(C)C [Example 4, N-((S)-1-methyl-2-oxo-2,3,4,5-tetrahydro-1H-1,5-benzodiazepin-3-yl)-(E)-(2R,3R,4S,5R)-3,4,5-trihydroxy-2-methoxy-8,8-dimethylnon-6-enamide] | 45 | – |
| CO[C@@H](C(=O)NC1CN(C)c2ccccc2NC1=O)[C@H](O)[C@@H](O)[C@H](O)/C=C/C(C)(C)C (stereo partly drawn) [Example 5, N-((S)-1-methyl-4-oxo-2,3,4,5-tetrahydro-1H-1,5-bezodiazepin-3-yl)-(E)-(2R,3R,4S,5R)-3,4,5-trihydroxy-2-methoxy-8,8-dimethylnon-6-enamide] | 28 | – |
